Laboratory results from publication PMC5971061, “Differential Effects of Linkers on the Activity of Amphiphilic Tobramycin Antifungals” (Molecules : A Journal of Synthetic Chemistry and Natural …, 2018).
≈ marks a conversion by molar mass, not a printed value. Read-outs that look alike come from different tables or passages of the source.

Key:
[1] = system: C. albicans ATCC 10231 (strain A); assay: MIC, broth microdilution (CLSI M27-A3), yeast strain A; assay type: cell-based, Candida albicans; conditions: Candida albicans, ATCC10231; MIC-0, strain A, 35 °C 48 h
Procedure: (§1) The final concentrations of compounds 3, 4, 7a, 7b, 9, and 16, as well as that of TOB tested in this study ranged from 0.24–62.5 μg/mL. CAS was used as a positive control and the final concentrations tested for CAS ranged from 0.03–31.3 μg/mL. Briefly, overnight yeast cultures were grown in yeast peptone dextrose (YPD) broth and the cell density was adjusted to an OD600 of 0.12 (~1 × 10^6 CFU/mL) by using a spectrophotometer. Yeast cell suspensions were further diluted to achieve 1–5 × 10^3 CFU/mL in RPMI 1640 medium, and 100 μL of these yeast cells was added to 96-well microtiter plates containing RPMI 1640 medium and titrated compounds. Each test was performed in triplicate. The plates were incubated at 35 °C for 48 h.

[2] = system: C. albicans ATCC 64124 (strain B); assay: MIC, broth microdilution (CLSI M27-A3), yeast strain B; assay type: cell-based; conditions: Candida albicans, ATCC64124; MIC-0, strain B, 35 °C 48 h
Procedure: as §1

[3] = system: C. albicans ATCC MYA-2876(S) (strain C); assay: MIC, broth microdilution (CLSI M27-A3), yeast strain C; assay type: cell-based; conditions: Candida albicans; MIC-0, strain C, 35 °C 48 h
Procedure: as §1

[4] = system: C. albicans ATCC 90819(R) (strain D); assay: MIC, broth microdilution (CLSI M27-A3), yeast strain D; assay type: cell-based; conditions: Candida albicans, ATCC90819; MIC-0, strain D, 35 °C 48 h
Procedure: as §1

[5] = system: C. albicans ATCC MYA-2310(S) (strain E); assay: MIC, broth microdilution (CLSI M27-A3), yeast strain E; assay type: cell-based; conditions: Candida albicans; MIC-0, strain E, 35 °C 48 h
Procedure: as §1

[6] = system: C. albicans ATCC MYA-1237(R) (strain F); assay: MIC, broth microdilution (CLSI M27-A3), yeast strain F; assay type: cell-based; conditions: Candida albicans; MIC-0, strain F, 35 °C 48 h
Procedure: as §1

[7] = system: C. albicans ATCC MYA-1003(R) (strain G); assay: MIC, broth microdilution (CLSI M27-A3), yeast strain G; assay type: cell-based; conditions: Candida albicans; MIC-0, strain G, 35 °C 48 h
Procedure: as §1

[8] = system: Candida glabrata clinical isolate CG1; assay: MIC, broth microdilution (CLSI M27-A3), CG1; assay type: cell-based; conditions: Nakaseomyces glabratus; MIC-0, CG1, 35 °C 48 h
Procedure: as §1

[9] = system: Candida glabrata ATCC 2001 (strain H); assay: MIC, broth microdilution (CLSI M27-A3), yeast strain H; assay type: cell-based; conditions: Nakaseomyces glabratus, ATCC2001; MIC-0, strain H, 35 °C 48 h
Procedure: as §1

[10] = system: Candida krusei ATCC 6258 (strain I); assay: MIC, broth microdilution (CLSI M27-A3), yeast strain I; assay type: cell-based; conditions: Pichia kudriavzevii, ATCC6258; MIC-0, strain I, 35 °C 48 h
Procedure: as §1

[11] = system: Candida parapsilosis ATCC 22019 (strain J); assay: MIC, broth microdilution (CLSI M27-A3), yeast strain J; assay type: cell-based; conditions: Lodderomyces parapsilosis, ATCC22019; MIC-0, strain J, 35 °C 48 h
Procedure: as §1

[12] = system: Candida parapsilosis clinical isolate CP1; assay: MIC, broth microdilution (CLSI M27-A3), CP1; assay type: cell-based; conditions: Lodderomyces parapsilosis; MIC-0, CP1, 35 °C 48 h
Procedure: as §1

[13] = system: Candida parapsilosis clinical isolate CP2; assay: MIC, broth microdilution (CLSI M27-A3), CP2; assay type: cell-based; conditions: Lodderomyces parapsilosis; MIC-0, CP2, 35 °C 48 h
Procedure: as §1

[14] = system: Cryptococcus neoformans clinical isolate CN1; assay: MIC, broth microdilution (CLSI M27-A3), CN1; assay type: cell-based; conditions: MIC-0, CN1, 35 °C 48 h
Procedure: as §1

[15] = system: Cryptococcus neoformans clinical isolate CN2; assay: MIC, broth microdilution (CLSI M27-A3), CN2; assay type: cell-based; conditions: MIC-0, CN2, 35 °C 48 h
Procedure: as §1

[16] = system: Cryptococcus neoformans clinical isolate CN3; assay: MIC, broth microdilution (CLSI M27-A3), CN3; assay type: cell-based; conditions: MIC-0, CN3, 35 °C 48 h
Procedure: as §1

[17] = system: Aspergillus nidulans ATCC 38163 (strain L); assay: MIC, filamentous fungi (CLSI M38-A2), strain L; assay type: cell-based; conditions: MIC-0, strain L, 35 °C 72 h
Procedure: The spores were harvested from sporulating cultures growing on potato dextrose agar (PDA) by filtration through sterile glass wool and enumerated by using a hemocytometer (Hausser Scientific, Horsham, PA, USA) to obtain the desired inoculum size. Two-fold serial dilutions of compounds 3, 4, 7a, 7b, 9, and 16, as well as CAS and TOB were made in sterile 96-well microtiter plates to obtain the final concentration range of 0.24–62.5 μg/mL for TOB and TOB derivatives as well as 0.03–31.3 μg/mL for CAS in the RPMI 1640 medium. The spore suspensions were added to the wells to afford a final concentration of 5 × 10^5 spores/mL. The plates were incubated at 35 °C for 72 h. […] Each test was performed in triplicate.

[18] = system: seven C. albicans strains (A-G); assay: MIC across the panel of seven C. albicans strains; assay type: cell-based; conditions: Candida albicans; across all seven C. albicans strains tested
Procedure: as §1

[19] = Hemolytic activity assay; assay type: cell-based, murine; conditions: mouse, murine red blood cells (mRBCs); for hemolysis at 1 h, 0.48 μg/mL / hemolysis at 1 h, 0.975 μg/mL / hemolysis at 1 h, 1.95 μg/mL / hemolysis at 1 h, 3.9 μg/mL / hemolysis at 1 h, 7.8 μg/mL / hemolysis at 1 h, 15.6 μg/mL / hemolysis at 1 h, 31.3 μg/mL / hemolysis at 1 h, 62.5 μg/mL: mRBCs, 37 °C 1 h, ± SDEV; for hemolysis at 1 h: at their MIC values against the Aspergillus strains
Procedure: The hemolytic activity of compounds 3, 4, 7a, 7b, and 9 as well as the parent compound TOB was determined by using previously described methods with minor modifications. Murine whole blood (1 mL) was suspended in 4 mL of PBS and centrifuged at 1000 rpm for 10 min at room temperature to obtain murine red blood cells (mRBCs). The mRBCs were washed four times in PBS and resuspended in the same buffer to a final concentration of 10^7 erythrocytes/mL. Two-fold serial dilutions of compounds 3, 4, 7a, 7b, and 9 were prepared using 100 μL of PBS buffer in Eppendorf tubes followed by the addition of 100 μL of mRBC suspension that made the final concentration of compounds and mRBCs to be 0.48–62.5 μg/mL and 5 × 10^6 erythrocytes/mL, respectively. The tubes were incubated at 37 °C for 1 h. The tubes with PBS buffer (200 μL) and Triton X-100® (1% v/v, 2 μL) served as the negative (blank) and positive controls, respectively. The percentage of hemolysis was calculated using the following equation: % hemolysis = [(absorbance of sample) − (absorbance of blank)] × 100/(absorbance of positive control).

[20] = Aspergillus nidulans, ATCC38163, 72 h, read-out: MIC

Structure (SMILES)	MIC [1] [µg/mL]	MIC [2] [µg/mL]	MIC [3] [µg/mL]	MIC [4] [µg/mL]	MIC [5] [µg/mL]	MIC [6] [µg/mL]	MIC [7] [µg/mL]	MIC [8] [µg/mL]	MIC [9] [µg/mL]	MIC [10] [µg/mL]	MIC [11] [µg/mL]	MIC [12] [µg/mL]	MIC [13] [µg/mL]	MIC [14] [µg/mL]	MIC [15] [µg/mL]	MIC [16] [µg/mL]	MIC [17, 20] [µg/mL]	MIC [18] [µg/mL]	hemolysis at 1 h, 0.48 μg/mL [19] [%]	hemolysis at 1 h, 0.975 μg/mL [19] [%]	further results
CCCCCCCCCCCCSC[C@H]1O[C@H](O[C@@H]2[C@@H](O)[C@H](O[C@H]3O[C@H](CN)[C@@H](O)C[C@H]3N)[C@@H](N)C[C@H]2N)[C@H](O)[C@@H](N)[C@@H]1O [Compound 3, O-3-Amino-3-deoxy-6-S-dodecyl-6-thio-α-D-glucopyranosyl-(1→6)-O-[2,6-diamino-2,3,6-trideoxy-α-D-ribo-hexopyranosyl-(1→4)]-2-deoxy-D-streptamine]	15.6 (≈ 23.9 µM)	15.6 (≈ 23.9 µM)	15.6 (≈ 23.9 µM)	15.6 (≈ 23.9 µM)	15.6 (≈ 23.9 µM)	7.8 (≈ 12 µM)	15.6 (≈ 23.9 µM)	15.6 (≈ 23.9 µM)	7.8 (≈ 12 µM)	3.9 (≈ 5.98 µM)	7.8 (≈ 12 µM)	15.6 (≈ 23.9 µM)	7.8 (≈ 12 µM)	0.975 (≈ 1.5 µM)	0.48 (≈ 0.736 µM)	0.48 (≈ 0.736 µM)	1.95 to 3.9 (≈ 2.99 to 5.98 µM)	7.8 to 31.3 (≈ 12 to 48 µM)	0	2.5 ± 2.3	MIC [17]: 3.9 µg/mL (≈ 5.98 µM); hemolysis at 1 h, 1.95 μg/mL [19]: 6 ± 3.5%; hemolysis at 1 h, 3.9 μg/mL [19]: 12 ± 1.9%; hemolysis at 1 h, 7.8 μg/mL [19]: 18.6 ± 6.6%; hemolysis at 1 h, 15.6 μg/mL [19]: 46.2 ± 2.3%; hemolysis at 1 h, 31.3 μg/mL [19]: 55.5 ± 3.9%; hemolysis at 1 h, 62.5 μg/mL [19]: 67 ± 4.6%; hemolysis at 1 h [19]: 12 to 74%
NC[C@H]1O[C@H](O[C@H]2[C@H](O)[C@@H](O[C@H]3O[C@H](CO)[C@@H](O)[C@H](N)[C@H]3O)[C@H](N)C[C@@H]2N)[C@H](N)C[C@@H]1O [TOB, tobramycin]	> 62.5	> 62.5	> 62.5	> 62.5	> 62.5	> 62.5	> 62.5	> 62.5	> 62.5	> 62.5	> 62.5	> 62.5	> 62.5	> 62.5	> 62.5	> 62.5	> 62.5	> 62.5	4.7 ± 3.9	9.3 ± 3.5	hemolysis at 1 h, 1.95 μg/mL [19]: 15.9 ± 1.9%; hemolysis at 1 h, 3.9 μg/mL [19]: 15.9 ± 8.1%; hemolysis at 1 h, 7.8 μg/mL [19]: 11.2 ± 4.6%; hemolysis at 1 h, 15.6 μg/mL [19]: 15.3 ± 5%; hemolysis at 1 h, 31.3 μg/mL [19]: 15.3 ± 2.7%; hemolysis at 1 h, 62.5 μg/mL [19]: 21.1 ± 9.3%
CCCCCCCCCCc1cn(C[C@H]2O[C@H](O[C@@H]3[C@@H](O)[C@H](O[C@H]4O[C@H](CN)[C@@H](O)C[C@H]4N)[C@@H](N)C[C@H]3N)[C@H](O)[C@@H](N)[C@@H]2O)nn1 [Compound 7a, O-3-Amino-3,6-dideoxy-6-(4-decyl-1H-1,2,3-triazol-1-yl)-α-D-glucopyranosyl-(1→6)-O-[2,6-diamino-2,3,6-trideoxy-α-D-ribo-hexopyranosyl-(1→4)]-2-deoxy-D-streptamine]	31.3 (≈ 47.5 µM)	31.3 (≈ 47.5 µM)	62.5 (≈ 94.9 µM)	62.6 (≈ 95 µM)	31.3 (≈ 47.5 µM)	62.5 (≈ 94.9 µM)	62.5 (≈ 94.9 µM)	31.3 (≈ 47.5 µM)	62.5 (≈ 94.9 µM)	15.6 (≈ 23.7 µM)	15.6 (≈ 23.7 µM)	15.6 (≈ 23.7 µM)	15.6 (≈ 23.7 µM)	0.975 (≈ 1.48 µM)	0.975 (≈ 1.48 µM)	0.48 (≈ 0.729 µM)	1.95 to 3.9 (≈ 2.96 to 5.92 µM)	31.3 to 62.5 (≈ 47.5 to 94.9 µM)	0	0	MIC [17]: 3.9 µg/mL (≈ 5.92 µM); hemolysis at 1 h, 1.95 μg/mL [19]: 15.6 ± 9.3%; hemolysis at 1 h, 3.9 μg/mL [19]: 0%; hemolysis at 1 h, 7.8 μg/mL [19]: 7.4 ± 3.1%; hemolysis at 1 h, 15.6 μg/mL [19]: 14 ± 5.4%; hemolysis at 1 h, 31.3 μg/mL [19]: 14.8 ± 1.9%; hemolysis at 1 h, 62.5 μg/mL [19]: 14.8 ± 0.4%
CCCCCCCCCCCCS(=O)(=O)C[C@H]1O[C@H](O[C@@H]2[C@@H](O)[C@H](O[C@H]3O[C@H](CN)[C@@H](O)C[C@H]3N)[C@@H](N)C[C@H]2N)[C@H](O)[C@@H](N)[C@@H]1O [Compound 4, O-3-Amino-3,6-dideoxy-6-(dodecylsulfonyl)-α-D-glucopyranosyl-(1→6)-O-[2,6-diamino-2,3,6-trideoxy-α-D-ribo-hexopyranosyl-(1→4)]-2-deoxy-D-streptamine]	15.6 (≈ 22.8 µM)	31.3 (≈ 45.8 µM)	15.6 (≈ 22.8 µM)	15.6 (≈ 22.8 µM)	15.6 (≈ 22.8 µM)	15.6 (≈ 22.8 µM)	15.6 (≈ 22.8 µM)	7.8 (≈ 11.4 µM)	15.6 (≈ 22.8 µM)	7.8 (≈ 11.4 µM)	7.8 (≈ 11.4 µM)	3.9 (≈ 5.7 µM)	3.9 (≈ 5.7 µM)	1.95 (≈ 2.85 µM)	0.48 (≈ 0.702 µM)	0.975 (≈ 1.43 µM)	1.95 to 3.9 (≈ 2.85 to 5.7 µM)	7.8 to 31.3 (≈ 11.4 to 45.8 µM)	0	0	MIC [17]: 3.9 µg/mL (≈ 5.7 µM); hemolysis at 1 h, 1.95 μg/mL [19]: 6.6 ± 3.5%; hemolysis at 1 h, 3.9 μg/mL [19]: 6 ± 1.9%; hemolysis at 1 h, 7.8 μg/mL [19]: 10.7 ± 3.1%; hemolysis at 1 h, 15.6 μg/mL [19]: 15.3 ± 5%; hemolysis at 1 h, 31.3 μg/mL [19]: 24.9 ± 2.3%; hemolysis at 1 h, 62.5 μg/mL [19]: 31.2 ± 6.6%; hemolysis at 1 h [19]: 4 to 32%
